Values after ≈ are worked out from the molar mass of the structure shown.
Experiments:
[1] = target: Epidermal growth factor receptor (Homo sapiens, UniProt P00533); test: Inhibition of wild type EGFR (unknown origin) after 24 hrs by fluorescence assay
[2] = Cytotoxicity against human HCC827 cells after 72 hrs by CCK-8 assay; type: functional, cell-based; details: HCC827, 72 h
[3] = Aqueous solubility of the compound at 20 degC; type: physicochemical; details: water
A549 = test: Cytotoxicity against human A549 cells after 72 hrs by CCK-8 assay; type: functional, cell-based; details: A549, 72 h

Epidermal growth factor receptor, sequence (P00533 whole entry): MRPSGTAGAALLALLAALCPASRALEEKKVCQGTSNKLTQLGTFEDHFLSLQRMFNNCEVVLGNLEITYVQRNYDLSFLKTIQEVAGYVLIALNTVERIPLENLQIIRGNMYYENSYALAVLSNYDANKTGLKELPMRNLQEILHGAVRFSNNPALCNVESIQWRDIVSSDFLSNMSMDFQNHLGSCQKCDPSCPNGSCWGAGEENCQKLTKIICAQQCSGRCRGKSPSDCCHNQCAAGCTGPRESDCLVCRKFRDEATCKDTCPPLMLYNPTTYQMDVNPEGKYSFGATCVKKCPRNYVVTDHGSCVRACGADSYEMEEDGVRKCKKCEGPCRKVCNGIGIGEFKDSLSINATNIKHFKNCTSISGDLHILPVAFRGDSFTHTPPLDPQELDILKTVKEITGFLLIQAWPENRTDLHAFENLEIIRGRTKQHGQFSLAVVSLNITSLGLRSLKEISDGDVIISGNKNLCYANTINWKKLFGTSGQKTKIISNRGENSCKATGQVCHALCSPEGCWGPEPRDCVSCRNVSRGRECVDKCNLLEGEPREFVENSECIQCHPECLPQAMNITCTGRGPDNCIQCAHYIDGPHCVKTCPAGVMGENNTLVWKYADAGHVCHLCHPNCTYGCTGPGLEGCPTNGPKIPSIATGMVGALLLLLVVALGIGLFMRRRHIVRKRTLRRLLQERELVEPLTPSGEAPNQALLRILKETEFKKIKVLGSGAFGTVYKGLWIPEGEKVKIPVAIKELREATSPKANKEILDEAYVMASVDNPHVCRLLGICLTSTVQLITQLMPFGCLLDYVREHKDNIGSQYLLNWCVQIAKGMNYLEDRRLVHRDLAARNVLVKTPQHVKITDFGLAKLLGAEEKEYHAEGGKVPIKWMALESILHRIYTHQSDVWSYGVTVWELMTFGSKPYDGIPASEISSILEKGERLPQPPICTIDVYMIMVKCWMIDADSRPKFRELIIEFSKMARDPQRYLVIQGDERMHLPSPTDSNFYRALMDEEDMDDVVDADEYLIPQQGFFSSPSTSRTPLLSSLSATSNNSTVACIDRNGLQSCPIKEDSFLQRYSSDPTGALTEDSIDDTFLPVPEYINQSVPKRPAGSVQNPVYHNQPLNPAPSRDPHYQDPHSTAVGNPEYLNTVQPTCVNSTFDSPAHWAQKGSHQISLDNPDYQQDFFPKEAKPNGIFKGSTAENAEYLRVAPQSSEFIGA

Structure (SMILES): COc1cc2ncnc(Nc3ccc(F)c(Cl)c3)c2cc1OCCN1CC2(C1)CS(=O)(=O)C2
- IC50 [1]: 158 nM
- IC50 [2]: 154 nM
- solubility [3]: < 1 µg/mL
- IC50 (A549): > 50000 nM

Structure (SMILES): COc1cc2ncnc(Nc3ccc(F)c(Cl)c3)c2cc1OCCCN1CC2(C1)CS(=O)(=O)C2
- IC50 [1]: 24 nM
- IC50 [2]: 389 nM
- solubility [3]: 72.3 µg/mL (≈ 143 µM)
- IC50 (A549): 25200 nM

Structure (SMILES): COc1cc2ncnc(Nc3ccc(F)c(Cl)c3)c2cc1OCCCN1CC(O)C1
- IC50 [1]: 25 nM
- IC50 [2]: 352 nM
- IC50 (A549): > 50000 nM

Structure (SMILES): COc1cc2ncnc(Nc3ccc(F)c(Cl)c3)c2cc1OCCCN1CC(OC)C1
- IC50 [1]: 34 nM
- IC50 [2]: 42 nM
- IC50 (A549): 25100 nM

Structure (SMILES): COc1cc2ncnc(Nc3ccc(F)c(Cl)c3)c2cc1OCCCN1CCC2(COC2)C1
- IC50 [2]: 28 nM
- solubility [3]: 33.8 µg/mL (≈ 71.5 µM)
- IC50 (A549): > 50000 nM

Structure (SMILES): COc1cc2ncnc(Nc3ccc(F)c(Cl)c3)c2cc1OCCN1CC2(COC2)C1
- IC50 [1]: 16 nM
- IC50 [2]: 16 nM
- solubility [3]: 1.4 µg/mL (≈ 3.15 µM)
- IC50 (A549): > 50000 nM

Structure (SMILES): COc1cc2ncnc(Nc3ccc(F)c(Cl)c3)c2cc1OCCN1CC2(CCO2)C1
- IC50 [1]: 190 nM
- IC50 [2]: 23 nM
- solubility [3]: < 1 µg/mL
- IC50 (A549): > 50000 nM

Structure (SMILES): COc1cc2ncnc(Nc3ccc(F)c(Cl)c3)c2cc1OCCN1CC2(CSC2)C1
- IC50 [1]: 52 nM
- IC50 [2]: 51 nM
- solubility [3]: < 1 µg/mL
- IC50 (A549): 4800 nM

Structure (SMILES): COc1cc2ncnc(Nc3ccc(F)c(Cl)c3)c2cc1OCCN1CC(O)C1
- IC50 [1]: 26 nM
- IC50 [2]: 116 nM
- IC50 (A549): > 50000 nM

Structure (SMILES): COc1cc2ncnc(Nc3ccc(F)c(Cl)c3)c2cc1OCCN1CC(OC)C1
- IC50 [1]: 94 nM
- IC50 [2]: 64 nM
- IC50 (A549): > 50000 nM

Structure (SMILES): COc1cc2ncnc(Nc3ccc(F)c(Cl)c3)c2cc1OCCCN1CC2(COC2)C1
- IC50 [1]: 56 nM
- IC50 [2]: 69 nM
- solubility [3]: 28.3 µg/mL (≈ 61.7 µM)
- IC50 (A549): 31800 nM

Structure (SMILES): COc1cc2ncnc(Nc3ccc(F)c(Cl)c3)c2cc1OCCCN1CC2(CCO2)C1
- IC50 [1]: 36 nM
- IC50 [2]: 39 nM
- solubility [3]: 1.2 µg/mL (≈ 2.61 µM)
- IC50 (A549): 25700 nM

Structure (SMILES): COc1cc2ncnc(Nc3ccc(F)c(Cl)c3)c2cc1OCCCN1CC2(CSC2)C1
- IC50 [1]: 48 nM
- IC50 [2]: 50 nM
- solubility [3]: 25.6 µg/mL (≈ 53.9 µM)
- IC50 (A549): 9500 nM

Structure (SMILES): COc1cc2ncnc(Nc3ccc(F)c(Cl)c3)c2cc1OCCCN1CCOCC1 [GEFITINIB]
- solubility [3]: 2.1 µg/mL (≈ 4.7 µM)

— ChEMBL document CHEMBL2424588, “Four-membered heterocycles-containing 4-anilino-quinazoline derivatives as epidermal growth factor receptor (EGFR) kinase inhibitors” (Bioorg Med Chem Lett, 2013)
